Experimental data as given in patent publication US20110257245A1, “METHODS OF IDENTIFYING REGULATORS OF CELLULAR PROTEOSTASIS” (The Board of Trustees of the Leland Stanford Junior …, priority 2010, published 2011).
Where a SMILES comes first, the peptide text is derived from it. The star is where a group is joined. Cbz = O=C(OCc1ccccc1)*

What was measured:
26S proteasomes = experiment: In vitro Sic1 degradation assay; assay type: biochemical, rat
Method: The substrate degradation reaction was carried out at room temperature in 50-100 μL total volume containing 10 nM 26S, 1×ATP buffer, and 100 nM [35S]Sic1-Ubn. 5 μL reaction aliquots were removed at various time points and separated on a 4-20% gradient gel followed by autoradiography. Alternately, aliquots were added to 10% trichloroacetic acid (TCA) or ddH20 on ice for 30 min and 2 mg/mL bovine serum albumin as a carrier. Samples were centrifuged at 12,000×g for 30 min, and the supernatant removed for analysis by scintillation spectrometry. The percent of degradation was determined by dividing the measured counts after TCA precipitation by the total counts measured in ddH20. To assess the ubiquitin-dependence of degradation, [35S]Sic1-Ubn was pretreated with 10 nM Usp2 cc (Baker et al., 2005) for 30 min at 37° C. prior to the addition of proteasomes. To inhibit substrate degradation, 26S proteasomes were pretreated with 10 μM MG132 (Biomol) prior to the addition of substrate. The initial rate of degradation was determined by least-squares linear regression analyses of 5, 10, and 20 min time points using Sigmaplot. The dependence of the initial rate of degradation on substrate concentration was plotted, and the data fit to the Michaelis-Menten equation using Sigmaplot.

[1] = system: HEK293 cells stably expressing GFP-CL1, UbG76V-GFP, Ub-R-GFP or cODC-GFP; experiment: Fluorescent proteasome reporters challenged with proteasome inhibitor; assay type: cell-based; conditions: 10 μM MG-132, all four reporters
Method: FIG. 6 depicts features of fluorescent proteasome reporters, used in embodiments of the present invention. Untransfected HEK293 cells, and cells stably expressing GFP-CL1, UbG76V-GFP, Ub-R-GFP or cODC-GFP were treated with 10 μM MG-132 and at the times indicated, mean GFP fluorescence was analyzed by flow cytometry (Panel A) or by fluorescence microscopy of living cells (Panel B). […] Cells were incubated overnight at the permissive temperature 32° C. (black bars), at 32° C. in the presence of 10 μM MG-132 (white bars) or at the non-permissive temperature 40° C. (grey bars). Mean GFP fluorescence was analyzed by flow cytometry, and plotted as relative fluorescence change. […] HEK293 cells stably expressing UbG76V-GFP or GFP were transiently transfected with httchFP, and analyzed as described in FIG. 1B. […] Htt(Q91)-chFP-specific GFP fluorescence is plotted for GFP (♦) and UbG76V-GFP expressing cells (▪).
Unless indicated, cells were harvested 72 hrs after transfection and analyzed with a Becton-Dickinson LSRII flow cytometer with a 488 nm and a 535 nm Laser (BD, Franklin Lakes, N.J.). To ensure a sufficient number of cells with elevated levels of the transfected protein, over 200,000 cells were analyzed per condition in a typical experiment. […] Raw flow cytometry data were analyzed using FlowJo (version 8.8.6, Tree Star) software. […]

CC(C)C[C@@H](C=O)NC(=O)[C@H](CC(C)C)NC(=O)[C@H](CC(C)C)NC(=O)OCc1ccccc1 [MG132] (Cbz-Leu-Leu-Leu-aldehyde)
effect on degradation of PY-Sic1(Ubn) by purified proteasomes (26S proteasomes; 10 μM MG132, 10 nM 26S, 100 nM substrate): inhibited | fluorescence of GFP-degron proteasome reporters [1]: diffuse time-dependent increases in cytoplasmic fluorescence

B1: [35S]PY-Sic1(Ubn): [35S]-labeled polyubiquitinated PY-Sic1 model substrate of the 26S proteasome (protein, UniProt P38634 1-284, looked up)
Protein SIC1: MTPSTPPRSRGTRYLAQPSGNTSSSALMQGQKTPQKPSQNLVPVTPSTTKSFKNAPLLAPPNSNMGMTSPFNGLTSPQRSPFPKSSVKRTLFQFESHDNGTVREEQEPLGRVNRILFPTQQNVDIDAAEEEEEGEVLLPPSRPTSARQLHLSLERDEFDQTHRKKIIKDVPGTPSDKVITFELAKNWNNNSPKNDARSQESEDEEDIIINPVRVGKNPFASDELVTQEIRNERKRAMLRENPDIEDVITYVNKKGEVVEKRRLTDEEKRRFKPKALFQSRDQEH
modifications: 35S label, PY motif, polyubiquitinated
notes: [35S]-labeled polyubiquitinated PY-Sic1 model substrate of the 26S proteasome
Km (26S proteasomes; 10 nM 26S proteasomes, read-out: Km of [35S]PY-Sic1(Ubn) degradation (Michaelis-Menten analysis)): 0.0469 ± 0.0035 µM
